*1 amine or outer side, *2 acyl side, *3 side chain or, on linkers, in order; H or OH if unused. Where a SMILES comes first, the peptide text is derived from it. [ ]: non-standard residue; d: D form. X1 = O=C([C@@H]1C[C@H](n2cc([C]34[CH]5[CH]6[CH]7[CH]3[Fe]6754389%10[CH]4[CH]3[CH]8[CH]9[CH]4%10)nn2)CN1[*:1])[*:2]; Cit = NC(=O)NCCC[C@H](N)C(=O)O
B1: Cyanovirin-N: 11 kD protein originally isolated from the cyanobacteria Nostoc ellipsosporum; binds gp120 (protein, listed as Nostoc ellipsosporum)
chain: LGKFSQTCYNSAIQGSVLTSTCERTNGGYNTSSIDLNSVIENVDGSLKWQPSNFIETCRNTQLAGSSELAAECKTRAQQFVSTKINLDDHIANIDGTLKYE
modifications: DISULFID (8)..(22); DISULFID (58)..(73)

What was measured:
HIV-1 strain BaL [1] = conditions: P4-CCR5 cells; Gopi et al., 2008; read-out: IC50, inhibition of infection by HIV-1 BaL; cited from earlier work
HIV-1 YU2 gp120 = biological target: T1, HIV-1 YU2 gp120 (Human immunodeficiency virus type 1 group M subtype B, UniProt P35961); type: binding; conditions: for dissociation rate constant (koff): Table 11, dissociation rate; for Ka: Table 11, association rate
T1 construct: made in house; host or cells: Drosophila S2 cells
Experimental: Surface plasmon resonance (SPR) interaction analyses were performed on a Biacore® 3000 optical biosensor (GE). All experiments were carried out at 25° C. using standard PBS, pH 7.4, with 0.005% Surfactant P20.
Regeneration of the surface was achieved by a one 5-second pulse of 10 mM glycine, pH 1.5.
SPR data analyses were performed using BIAEvaluation 4.0 software (GE). […] Experimental data were fitted to a simple 1:1 binding model with a parameter included for mass transport. […] The inhibition curve was converted into a calibration curve by the use of a fitting function. The fitting was done using the 4-parameter equation in BIAevaluation software: […]

gp120 = biological target: T2, gp120 (Human immunodeficiency virus type 1 group M subtype B, UniProt P35961); type: binding, HIV-1; conditions: ITC, 25° C., PBS pH 7.4
T2 construct: made in house; host or cells: Drosophila S2 cells
Experimental: FIGS. 14A-14D are a series of graphs of calorimetric titration data of gp120 with various peptides. […] Data was obtained as 25° C. in PBS, pH 7.4. Experiments in FIGS. 14A and 14B were carried out using a VP-ITC, where 2 μM gp120 in the calorimetric cell (˜1.4 mL) was titrated with 10 μL aliquots of peptide at concentration of 30 μM.
Isothermal titration calorimetric experiments were performed using high-precision calorimetric systems of model VP-ITC or ITC20 from MicroCal Inc. The titrations were performed by stepwise addition of peptide to gp120 contained in the calorimetric cell at a constant temperature of 25° C. […] For the experiments carried out in the VP-ITC the concentration of gp120 was about 2 μM and the syringe contained the peptide at a concentration about 30 μM. For the experiment carried out using ITC20 gp120 was prepared at about 4 μM and the peptide at 50-100 μM. The solutions contained within the calorimetric cells and injector syringes were prepared in PBS, pH 7.4 and thoroughly degassed to avoid bubble formation in the calorimetric cell. The heat evolved upon each injection of the peptide solution was obtained from the integral of the calorimetric signal. The heat associated with binding of a ligand to the protein in the cell was obtained by subtracting the heat of dilution from the heat of reaction.

HIV-1 strain BaL [2] = assay: Combination of HNG-156 and cyanovirin-N, HIV-1 BaL infection of P4-CCR5 cells; type: cell-based; conditions: agent alone

Molecule	dissociation rate constant (koff) (HIV-1 YU2 gp120)	also measured
12-mer peptide RINNIPWSEAMM (SEQ ID NO. 16) from phage-display library [Conjugate 12p1, reference compound]	–	IC50 (HIV-1 strain BaL [1]): 48 µM
CC[C@H](C)[C@H](NC(=O)[C@@H](N)CCCNC(=N)N)C(=O)N[C@@H](CC(N)=O)C(=O)N[C@@H](CC(N)=O)C(=O)N[C@H](C(=O)N1C[C@@H](n2cc([C]34[CH]5[CH]6[CH]7[CH]3[Fe]6754389%10[CH]4[CH]3[CH]8[CH]9[CH]4%10)nn2)C[C@H]1C(=O)N[C@@H](Cc1c[nH]c2ccccc12)C(=O)N[C@@H](CO)C(N)=O)[C@@H](C)CC (some centres unmarked) [UM11] (H-RINNI[X1]WS-NH2; N-terminus and C-terminus assumed)	2.1E−02 ± 0.6 1/S	–
CC[C@H](C)[C@H](N)C(=O)N[C@@H](CC(N)=O)C(=O)N[C@@H](CC(N)=O)C(=O)N[C@H](C(=O)N1C[C@@H](n2cc([C]34[CH]5[CH]6[CH]7[CH]3[Fe]6754389%10[CH]4[CH]3[CH]8[CH]9[CH]4%10)nn2)C[C@H]1C(=O)N[C@@H](Cc1c[nH]c2ccccc12)C(N)=O)[C@@H](C)CC (some centres unmarked) [UM15] (H-INNI[X1]W-NH2)	3.3E−03 ± 0.3 1/S	ΔH (gp120): -69.5 kJ/mol; −TΔS (gp120): +6.6 kcal/mol
CC[C@H](C)[C@H](NC(=O)[C@@H](N)CCCNC(=N)N)C(=O)N[C@@H](CC(N)=O)C(=O)N[C@@H](CC(N)=O)C(=O)N[C@H](C(=O)N1C[C@@H](n2cc([C]34[CH]5[CH]6[CH]7[CH]3[Fe]6754389%10[CH]4[CH]3[CH]8[CH]9[CH]4%10)nn2)C[C@H]1C(N)=O)[C@@H](C)CC (some centres unmarked) [UM16] (H-RINNI[X1]-NH2; N-terminus assumed)	Not detectable	Ka (HIV-1 YU2 gp120): Not detectable
CC[C@H](C)[C@H](N)C(=O)N[C@@H](CC(N)=O)C(=O)N[C@@H](CC(N)=O)C(=O)N[C@H](C(=O)N1C[C@@H](n2cc([C]34[CH]5[CH]6[CH]7[CH]3[Fe]6754389%10[CH]4[CH]3[CH]8[CH]9[CH]4%10)nn2)C[C@H]1C(=O)N[C@@H](Cc1c[nH]c2ccccc12)C(=O)N[C@@H](CO)C(N)=O)[C@@H](C)CC (some centres unmarked) [UM21] (H-INNI[X1]WS-NH2; N-terminus and C-terminus assumed)	1.4E−03 ± 0.5 1/S	–
CC[C@H](C)[C@H](NC(=O)[C@H](CC(N)=O)NC(=O)[C@H](CC(N)=O)NC(=O)[C@@H](N)CCCNC(=N)N)C(=O)N1C[C@@H](n2cc([C]34[CH]5[CH]6[CH]7[CH]3[Fe]6754389%10[CH]4[CH]3[CH]8[CH]9[CH]4%10)nn2)C[C@H]1C(=O)N[C@@H](Cc1c[nH]c2ccccc12)C(=O)N[C@@H](CO)C(N)=O (some centres unmarked) [UM22] (H-RNNI[X1]WS-NH2; N-terminus and C-terminus assumed)	6.8E−03 ± 0.4 1/S	–
CC[C@H](C)[C@H](NC(=O)[C@H](CC(N)=O)NC(=O)[C@H](CC(N)=O)NC(=O)[C@@H](N)CCC(=O)O)C(=O)N1C[C@@H](n2cc([C]34[CH]5[CH]6[CH]7[CH]3[Fe]6754389%10[CH]4[CH]3[CH]8[CH]9[CH]4%10)nn2)C[C@H]1C(=O)N[C@@H](Cc1c[nH]c2ccccc12)C(=O)N[C@@H](CO)C(N)=O (some centres unmarked) [UM23] (H-ENNI[X1]WS-NH2; N-terminus and C-terminus assumed)	3.4E−03 ± 0.2 1/S	–
CC[C@H](C)[C@H](NC(=O)[C@H](CC(N)=O)NC(=O)[C@H](CC(N)=O)NC(=O)[C@@H](N)CCCNC(N)=O)C(=O)N1C[C@@H](n2cc([C]34[CH]5[CH]6[CH]7[CH]3[Fe]6754389%10[CH]4[CH]3[CH]8[CH]9[CH]4%10)nn2)C[C@H]1C(=O)N[C@H](Cc1c[nH]c2ccccc12)C(=O)N[C@@H](CO)C(N)=O (some centres unmarked) [UM24-DW] (H-[Cit]NNI[X1][dW]S-NH2; N-terminus assumed)	Not detectable	Ka (HIV-1 YU2 gp120): Not detectable
CC[C@H](C)[C@H](NC(=O)[C@H](CC(N)=O)NC(=O)[C@H](CC(N)=O)NC(=O)[C@@H](N)CCCCN)C(=O)N1C[C@@H](n2cc([C]34[CH]5[CH]6[CH]7[CH]3[Fe]6754389%10[CH]4[CH]3[CH]8[CH]9[CH]4%10)nn2)C[C@H]1C(=O)N[C@@H](Cc1c[nH]c2ccccc12)C(=O)N[C@@H](CO)C(N)=O (some centres unmarked) [UM27] (H-KNNI[X1]WS-NH2)	8.8E−03 ± 2.1 1/S	–
CC[C@H](C)[C@H](NC(=O)[C@H](CC(N)=O)NC(=O)[C@H](CC(N)=O)NC(=O)[C@@H](N)Cc1ccccc1)C(=O)N1C[C@@H](n2cc([C]34[CH]5[CH]6[CH]7[CH]3[Fe]6754389%10[CH]4[CH]3[CH]8[CH]9[CH]4%10)nn2)C[C@H]1C(=O)N[C@@H](Cc1c[nH]c2ccccc12)C(=O)N[C@@H](CO)C(N)=O (some centres unmarked) [UM28] (H-FNNI[X1]WS-NH2)	4.3E−03 ± 0.8 1/S	–
CC[C@H](C)[C@H](NC(=O)[C@H](CC(N)=O)NC(=O)[C@@H](N)CC(N)=O)C(=O)N1C[C@@H](n2cc([C]34[CH]5[CH]6[CH]7[CH]3[Fe]6754389%10[CH]4[CH]3[CH]8[CH]9[CH]4%10)nn2)C[C@H]1C(=O)N[C@@H](Cc1c[nH]c2ccccc12)C(=O)N[C@@H](CO)C(N)=O (some centres unmarked) [UM31] (H-NNI[X1]WS-NH2)	7.8E−03 ± 1.1 1/S	ΔH (gp120): -57.7 kJ/mol; −TΔS (gp120): +4.1 kcal/mol
CC[C@H](C)[C@H](NC(=O)[C@H](CC(N)=O)NC(=O)[C@@H](N)CCCNC(=N)N)C(=O)N1C[C@@H](n2cc([C]34[CH]5[CH]6[CH]7[CH]3[Fe]6754389%10[CH]4[CH]3[CH]8[CH]9[CH]4%10)nn2)C[C@H]1C(=O)N[C@@H](Cc1c[nH]c2ccccc12)C(=O)N[C@@H](CO)C(N)=O (some centres unmarked) [UM32] (H-RNI[X1]WS-NH2)	3.1E−03 ± 1.5 1/S	–
CC[C@H](C)[C@H](NC(=O)[C@H](CC(N)=O)NC(=O)[C@@H](N)CCC(=O)O)C(=O)N1C[C@@H](n2cc([C]34[CH]5[CH]6[CH]7[CH]3[Fe]6754389%10[CH]4[CH]3[CH]8[CH]9[CH]4%10)nn2)C[C@H]1C(=O)N[C@@H](Cc1c[nH]c2ccccc12)C(=O)N[C@@H](CO)C(N)=O (some centres unmarked) [UM33] (H-ENI[X1]WS-NH2)	1.8E−03 ± 0.8 1/S	–
CC[C@H](C)[C@H](NC(=O)[C@H](CC(N)=O)NC(=O)[C@@H](N)CCCNC(N)=O)C(=O)N1C[C@@H](n2cc([C]34[CH]5[CH]6[CH]7[CH]3[Fe]6754389%10[CH]4[CH]3[CH]8[CH]9[CH]4%10)nn2)C[C@H]1C(=O)N[C@@H](Cc1c[nH]c2ccccc12)C(=O)N[C@@H](CO)C(N)=O (some centres unmarked) [UM34] (H-[Cit]NI[X1]WS-NH2; N-terminus assumed)	Not detectable	Ka (HIV-1 YU2 gp120): Not detectable
CC[C@H](C)[C@H](N)C(=O)N[C@@H](CC(N)=O)C(=O)N[C@H](C(=O)N1C[C@@H](n2cc([C]34[CH]5[CH]6[CH]7[CH]3[Fe]6754389%10[CH]4[CH]3[CH]8[CH]9[CH]4%10)nn2)C[C@H]1C(=O)N[C@@H](Cc1c[nH]c2ccccc12)C(=O)N[C@@H](CO)C(N)=O)[C@@H](C)CC (some centres unmarked) [UM35] (H-INI[X1]WS-NH2; N-terminus assumed)	Not detectable	Ka (HIV-1 YU2 gp120): Not detectable
CC[C@H](C)[C@H](NC(=O)[C@@H](N)CC(N)=O)C(=O)N1C[C@@H](n2cc([C]34[CH]5[CH]6[CH]7[CH]3[Fe]6754389%10[CH]4[CH]3[CH]8[CH]9[CH]4%10)nn2)C[C@H]1C(=O)N[C@@H](Cc1c[nH]c2ccccc12)C(=O)N[C@@H](CO)C(N)=O (some centres unmarked) [UM41] (H-NI[X1]WS-NH2)	Not detectable	Ka (HIV-1 YU2 gp120): Not detectable; ΔH (gp120): -25.5 kJ/mol; −TΔS (gp120): -6.69 kJ/mol
B1	–	Viral infectivity inhibition IC50 (HIV-1 strain BaL [2]): 0.026 microgram/milliliter; EC50 Dm (HIV-1 strain BaL [2]; dose at which 50% neutralization occurs): 0.045 mg/L
